Data as given in patent US10934326B2, “Peripheral modifications on pocket-redesigned vancomycin analogs synergistically improve antimicrobial potency and durability” (priority 2016, dated 2021).
“Also recorded” adds a separate entry of the source. Read-outs that look alike come from different tables or passages of the source.

Key:
[1] = test system: vancomycin-resistant Enterococcus faecalis (VanA VRE, BM4166); experiment: In vitro antimicrobial assay (MIC), VanA E. faecalis; format: cell-based; details: for antibiotic susceptibility profile of the strain: VanA E. faecalis BM 4166
Source text: (§1) One day before a study was run, fresh cultures of vancomycin-sensitive Staphylococcus aureus (VSSA strain ATCC 25923), methicillin and oxacillin-resistant Staphylococcus aureus subsp. aureus (MRSA strain ATCC 43300), vancomycin-resistant Enterococcus faecalis (VanA VRE, BM4166), Enterococcus faecium (VanA VRE, ATCC BAA-2317), vancomycin-resistant Enterococcus faecalis (VanB VRE, strain ATCC 51299), Escherichia coli (ATCC 25922), Acinetobacter baumannii (ATCC BAA-1710), Pseudomonas aeruginosa (ATCC 15442), Klebsiella pneumoniae (ATCC 700603) were inoculated and grown in an orbital shaker at 37° C. in 100% Mueller-Hinton broth (VSSA, MRSA and VanB VRE), 100% brain-heart infusion broth (VanA VRE, A. baumannii and K. pneumoniae) or 100% Luria broth (E. coli and P. aeruginosa). After 24 hours, the bacterial stock solutions were serially diluted with the culture medium (10% Mueller-Hinton broth for VSSA, MRSA and VanB VRE or 10% brain-heart infusion broth for VanA VRE A. baumannii and K. pneumoniae or 10% Luria Broth for E. coli and P. aeruginosa) to achieve a turbidity equivalent to a 1:100 dilution of a 0.5 M McFarland solution. This diluted bacterial stock solution was then inoculated in a 96-well V-shaped glass coated microtiter plate, supplemented with serial diluted aliquots of the antibiotic solution in DMSO (4 μL), to achieve a total assay volume of 0.1 mL. The plate was then incubated at 37° C. for 18 hours, after which minimal inhibitory concentrations (MICs) were determined by monitoring the cell growth (observed as a pellet) in the wells.
(§2) The lowest concentration of antibiotic (in μg/mL) capable of eliminating cell growth in the wells is the reported MIC value. The reported MIC values for the vancomycin analogues were determined against vancomycin as a standard in the first well.*
(§3) [*Clinical and Laboratory Standards Institute. Methods for Dilution Antimicrobial Susceptibility Tests for Bacteria That Grow Aerobically; Approved Standard, 7th ed.; CLSI document M07-A8; Clinical and Laboratory Standards Institute: Wayne, Pa., 2009.]

[2] = test system: VanA VRE (E. faecalis BM4166 and E. faecium ATCC BAA-2317); experiment: Resistance development study (serial passaging at 0.5×MIC); format: cell-based, Enterococcus faecalis; Enterococcus faecium; details: 0.5×MIC serial exposure, MICs monitored daily
Method: However, an additional and even more important feature of the expression of multiple independent mechanisms of action is a mechanism's impact on the rate at which bacterial resistance may emerge.
The MICs of the vancomycin analogues against vancomycin-resistant Enterococcus faecalis (VanA VRE, BM4166) and Enterococcus faecium (VanA VRE, ATCC BAA-2317) were determined. […] A new MIC assay was performed with the same protocol. This process was repeated for 50 passages, and the fold increase in MIC was determined at each passage. [****Pollard et al., J. Antimicrob. Chemother. 2012, 67:2665-2672.]

[3] = test system: Enterococcus faecium (VanA VRE, ATCC BAA-2317); experiment: In vitro antimicrobial assay (MIC), VanA E. faecium; format: cell-based
Source text: as §1, §2, §3

[4] = test system: VanA VRE (E. faecalis BM 4166 and E. faecium ATCC BAA-2317); experiment: Cell wall permeability assay (propidium iodide uptake); format: cell-based, Enterococcus faecalis; Enterococcus faecium; details: 10 μM compound
Source text: The effect of the compounds on cell membrane permeability was examined by measuring cytoplasmic membrane uptake of the fluorescent probe propidium iodide in the same VanA vancomycin-resistant E. faecalis (BM 4166) and E. faecium (ATCC BAA-2317) strains. This fluorescent probe only enters cells with permeabilized cell membranes and is detected by the emission of fluorescence upon intracellular nucleic acid binding [Boulos et al., J Microbiol Methods 1999, 37(1):77-86].
Fresh, mid-log phase VanA VRE in pH 7.2 buffer at 25° C. were preincubated with propidium iodide (10 μM) for 5 minutes before the test compounds were added, monitoring the fluorescence emission at 617 nm (excitation at 535 nm) over time, both pre (5 minutes) and post (15 minutes) compound addition. Rapid and sustained increases in fluorescence intensity are observed immediately upon addition of test compounds that induce bacterial cell membrane permeability.
One day before a study was run, cultures of vancomycin-resistant Enterococcus faecalis (VanA VRE, BM4166) and Enterococcus faecium (VanA VRE, ATCC BAA-2317), were inoculated and grown in an orbital shaker at 37° C. in 100% brain-heart infusion broth for 12 hours. The above bacterial solution was subjected to a subculture to obtain fresh mid-log phase bacterial cells (total volume of bacterial suspension=7 mL, incubation time=6 hours, OD600=0.6). After the cultured bacteria were harvested (3000 rpm, 4° C., 20 minutes), the white bacterial precipitate was washed and resuspended in 5 mM glucose and 5 mM HEPES buffer (1:1, 500 μL, pH=7.2).
This bacterial suspension (130 μL) was charged into a 96-well black plate with a clear bottom (Corning 3650). The propidium iodide dye (10 μL, 150 μM DMSO solution) was added to the above suspension and the fluorescence was monitored at 25° C. for 5 minutes at 30 second intervals using a microplate reader (Molecular Devices®, Max Gemini EX) at an excitation wavelength of 535 nm and an emission wavelength of 617 nm. The test compound (150 μM, 10 μL) was added to the cell suspension and the fluorescence was monitored at 25° C. for an additional 15 minutes.

[5] = test system: red blood cells (pig whole blood); experiment: Hemolysis assay; format: cell-based; details: assay time extended to 24 hours
Method: The blood cells in pig whole blood (2 mL, Pel-Free Biologicals, non-sterile, sodium citrate) were harvested (3000 rpm, 4° C., 20 minutes), and the red blood precipitate was washed and resuspended in phosphate buffered saline (pH 7.4). This diluted red blood cell stock solution (384 μL) was incubated with the antibiotic solution in DMSO (16 μL) in a 1 mL microtube to achieve the final concentration of the test compounds. […]
The solution was diluted with phosphate buffer saline (pH 7.4, 200 μL) at 25° C. and centrifuged (3000 rpm, 4° C., 20 minutes). The supernatant (200 μL) was transferred to a microtiter plate. A positive control (0.2% vol % Triton® X-100, 100% total hemolysis) and the negative control (no antibiotic, 0% hemolysis) were prepared. A350 was measured using a microplate reader (Molecular Devices®, Max Gemini EX). The % hemolysis was determined by calculating the following equation shown below (eq. 1).
Although the differences in mammalian and bacterial cell wall composition are extensive, including the more highly anionic composition of the bacterial cell wall responsible for a preferential and differential cation binding, lysis of mammalian cell membranes (red blood cells) are potential off-target consequences of cationic compounds that impact bacterial cell membrane integrity. […]

[6] = test system: VanA VRE (E. faecalis BM 4166 and E. faecium ATCC BAA-2317); experiment: Cell wall biosynthesis inhibition assay (accumulation of UDPMurNAc-pp 19); format: cell-based, Enterococcus faecalis; Enterococcus faecium; details: 35 μg/mL, tetracycline pretreated VanA VRE, 30 minutes, 37° C.
Source text: The inhibition of bacterial cell wall synthesis was established in an assay that quantitates the accumulation of the peptidoglycan precursor UDP-N-acetyl-muramyl-depsipentapeptide (Compound 19, UDPMurNAc-pp), resulting from inhibited cell wall incorporation following antibiotic treatment. […] This procedure was reduced in scale and modified to enlist reverse-phase HPLC separation, UV detection, and calibration curve determination of the amount of isolated 19, permitting use with limited sample sizes. A larger scale isolation and full characterization of 19 provided the material needed to establish a linear calibration curve.
The bacterial suspension was heated at 100° C. for 15 minutes to release cytosolic 19. The entire supernatant was analyzed by semi-preparative reverse-phase HPLC with a single injection and the amount of 19 was quantitated with use of the calibration curve.
Cultures of vancomycin-resistant Enterococcus faecalis (VanA VRE, BM4166) and Enterococcus faecium (VanA VRE, ATCC BAA-2317) were inoculated and grown in an orbital shaker at 37° C. in 100% brain-heart infusion broth for 12 hours. The above bacterial solution was subjected to a subculture to obtain fresh mid-log phase bacterial cells (total volume of bacterial suspension=5 mL, incubation time=6 hours, OD600=0.6). […] Vancomycin analogues were added and the mixture was incubated at 37° C. for a further 30 minutes.
After the bacteria were harvested (3000 rpm, 4° C., 20 minutes), this bacterial precipitate was washed and resuspended in 5 mM glucose and 5 mM HEPES buffer (500 μL, 1:1, pH=7.2). This bacterial suspension was heated at 100° C. for 15 minutes and centrifuged (13000 rpm, 25° C., 10 minutes). […] [*****Allen et al., Antimicrob. Agents Chemother. 1996, 40(10):2356-2362]; Liu et al., J. Am. Chem. Soc. 2001, 123:9916-9917.] The amount of UDP Mur N-Ac pentapeptide (19) was quantified by use of calibration curves for E. faecalis BM4166, and for E. faecium ATCC BAA-2317 based on the area under the curve (AUC).

[7] = test system: vancomycin-sensitive Staphylococcus aureus (VSSA strain ATCC 25923); details: previously reported data; cited from earlier work
[8] = test system: methicillin and oxacillin-resistant Staphylococcus aureus subsp. aureus (MRSA strain ATCC 43300); details: previously reported data; cited from earlier work
[9] = test system: vancomycin-resistant Enterococcus faecalis (VanA VRE, BM4166); details: BM 4166; previously reported data; cited from earlier work
[10] = test system: Enterococcus faecium (VanA VRE, ATCC BAA-2317); details: previously reported data; cited from earlier work
[11] = test system: vancomycin-resistant Enterococcus faecalis (VanB VRE, strain ATCC 51299); details: previously reported data; cited from earlier work
[12] = D-Ala-D-Lac versus D-Ala-D-Ala; cited from earlier work

Row | SMILES | antibiotic susceptibility profile of the strain [1] | emergence of resistance on serial passaging [2] | MIC ([1]; Enterococcus faecalis, VRE, read-out: Antimicrobial Activity, MIC, VanA E. faecalis) [µg/mL] | MIC ([3]; Enterococcus faecium, read-out: Antimicrobial Activity, MIC, VanA E. faecium) [µg/mL] | induced cell membrane permeability (propidium uptake) [4] | red blood cell hemolytic activity, extended exposure [5] | Antimicrobial Activity, MIC, VanA E. faecalis ([1]; BM 4166) [µg/mL] | Antimicrobial Activity, MIC, VanA E. faecium ([3]; ATCC BAA-2317) [µg/mL] | antibiotic susceptibility profile of the strain ([3]; VanA E. faecium ATCC BAA-2317) | inhibition of bacterial cell wall synthesis (accumulation of 19) [6] | Antimicrobial Activity, MIC, sensitive S. aureus [7] [µg/mL] | Antimicrobial Activity, MIC, MRSA S. aureus [8] [µg/mL] | Antimicrobial Activity, MIC, VanA E. faecalis [9] [µg/mL] | Antimicrobial Activity, MIC, VanA E. faecium [10] [µg/mL] | Antimicrobial Activity, MIC, VanB E. faecalis [11] [µg/mL] | reduction of binding affinity for the altered ligand [12] [fold]
1 | CCCCCCCCCC(=O)N[C@@H](Cc1c[nH]c2ccccc12)C(=O)N[C@H](CC(N)=O)C(=O)N[C@@H](CC(=O)O)C(=O)N[C@@H]1C(=O)NCC(=O)N[C@@H](CCCN)C(=O)N[C@@H](CC(=O)O)C(=O)N[C@H](C)C(=O)N[C@@H](CC(=O)O)C(=O)NCC(=O)N[C@H](CO)C(=O)N[C@@H]([C@H](C)CC(=O)O)C(=O)N[C@@H](CC(=O)c2ccccc2N)C(=O)O[C@@H]1C [daptomycin] | sensitive | arises much faster and is much more pronounced; also recorded: arise much faster and was more pronounced |  |  |  |  |  |  |  |  |  |  |  |  |  | 
2 | CCCCCCCCCCCCCC[N+](C)(C)CCCNC(=O)[C@H]1NC(=O)[C@H]2NC(=O)[C@@H](NC(=O)[C@@H]3NC(=O)[C@H](CC(N)=O)NC(=O)[C@H](NC(=O)[C@@H](CC(C)C)NC)[C@H](O)c4ccc(c(Cl)c4)Oc4cc3cc(c4OC3OC(CO)C(O)[C@H](O)[C@@H]3O[C@H]3CC(C)(N)[C@H](O)[C@H](C)O3)Oc3ccc(cc3Cl)[C@H]2O)c2ccc(O)c(c2)-c2c(O)cc(O)cc21 (stereo partly drawn) [Compound 12] |  |  | 2 | 2 | produced pronounced, rapid cell membrane permeability | performed worse than the control daptomycin |  |  |  |  |  |  |  |  |  | 
3 | CN[C@H](CC(C)C)C(=O)N[C@H]1C(=O)N[C@@H](CC(N)=O)C(=O)N[C@H]2C(=O)N[C@H]3C(=O)N[C@H](C(=O)N[C@H](C(=O)O)c4cc(O)cc(O)c4-c4cc3ccc4O)[C@H](O)c3ccc(c(Cl)c3)Oc3cc2cc(c3O[C@@H]2O[C@H](CO)[C@@H](O)[C@H](O)[C@H]2O[C@H]2C[C@](C)(N)[C@H](O)[C@H](C)O2)Oc2ccc(cc2Cl)[C@H]1O [Compound 1, vancomycin] | resistant |  |  |  |  | no different from the control tigecycline | 250 | 250 | resistant | do not effectively inhibit bacterial cell wall synthesis | 0.5 | 0.5 | 250 | 250 | 8 | 1000
